Test results from publication PMC7157241, “Phenotypic Drug Discovery for Human African Trypanosomiasis: A Powerful Approach” (Tropical Medicine and Infectious Disease, 2020).
Where two headings read alike, the source gives them in different places. Marks after values point to notes of the source that are not given here.

How the values were obtained:
[1] = test system: T. brucei brucei (strain BF427); assay: In vitro parasite growth arrest assay (AlamarBlue); assay type: cell-based, Trypanosoma brucei brucei
Procedure: Follow up compounds were tested for antiparasitic activity on T. brucei brucei (strain BF427). Parasites were tested in triplicate in the presence of serial dilutions of compound, and growth was quantified with AlamarBlue.

[2] = Mammalian cell cytotoxicity assay (AlamarBlue, 48 h); assay type: cell-based; settings: human
Procedure: Compounds were tested for cytotoxicity against CRL-8155 cells (human lymphoblasts). Cells were grown in culture with serial dilutions of compounds for 48 h and cytotoxicity was assayed using AlamarBlue (Life Technologies, Carlsbad, California CA, USA).

[3] = Brain permeability studies in mice (brain to plasma ratio); assay type: in vivo, mouse; settings: for Kp at 1 h / Kp at 60 min: 5 mg/kg, mouse; for Kp at 60 min: read-out: B/P Ratio (Mouse)
Procedure: Test compounds were injected (ip) at 5 mg/kg to three mice in a vehicle consisting of DMSO (5%), Tween 80 (7%), and EtOH (3%) in physiological saline (0.9%) solution [8]. At 1 h post injection, blood was collected, and plasma was separated by centrifugation. Simultaneously, the brain was removed and homogenized in acetonitrile. Concentrations of compound in the plasma and brain were determined via liquid chromatography/tandem mass spectrometry. Calculations of brain levels accounted for 3% volume/weight of blood in the brain.
The long-term goal of the project was to develop a drug for treatment of HAT including late-stage disease involving the central nervous system. […] To assess this, the sixteen hit compounds were injected […] and mice were sacrificed at 60 min (n = 3 mice) for the simultaneous collection of plasma and whole brains for the quantification of compound concentrations. Eleven compounds (1–10, 12) had brain levels of at least 25% of plasma levels and were considered candidates for development. One compound (11) had modest brain permeability of 9%, but was included for further chemistry despite this marginal activity. Four compounds (13–15, 17) had minimal concentrations in the brain (< 2% of plasma levels) and were no longer pursued.

[4] = test system: T. b. brucei (strain TREU667); assay: Anti-parasite efficacy in mice (chronic model); assay type: in vivo, mouse; settings: chronic infection model (unpublished)
Procedure: Groups of six to eight mice were infected with 1 × 10^4 T. b. brucei (strain TREU667) to establish a chronic infection. Treatment began on day 21 post-infection, and mice received 50 mg/kg test compound orally twice per day for 10 days (total of 20 doses) in a 200 μL volume of vehicle. A control group received the vehicle with no compound and another control group received a single intraperitoneal dose of diminazene aceturate at 10 mg/kg on day 21. […] After dosing, parasitemia was monitored via microscopic examination of tail blood slides until 180 days post-infection. Mice were removed from the experiment when parasites were detected in the blood.

[5] = test system: T. brucei rhodesiense STIB 900 strain; settings: acute infection model; cited from earlier work
[6] = Mouse liver microsome stability; settings: for half-life: mouse, liver microsomes
[7] = Single dose oral pharmacokinetic study in mice; assay type: in vivo; settings: mouse, oral gavage 50 mg/kg
Procedure: Test compounds were administered to mice by oral gavage followed by blood sampling at intervals of 30, 60, 120, 240, 360, 480, and 1440 min [5, 7]. Compounds were dosed orally at 50 mg/kg in 0.2 mL of dosing solution (7% Tween 80, 3% ethanol, 5% DMSO, 0.9% saline). Experiments were performed with groups of three mice per compound as published. Plasma was separated and extracted with acetonitrile for measurements of the compound concentrations by liquid chromatography/tandem mass spectrometry.
New compounds had T. brucei EC50, mammalian host cell cytotoxicity (CC50), and aqueous solubility assayed per our screening cascade (Figure 2). The cut-off values for further advancement are shown. […] The screening results were continuously reviewed by the chemistry group to define structure activity relationships (SAR). […] Mice were administered compounds by oral gavage at 50 mg/kg and whole blood samples were collected on blotting cards at serial time points. The parameters of maximum blood concentration (Cmax) and the concentration of compound integrated over time (area under curve, AUC) were of primary interest. The general rule was to attain plasma concentrations 10 times above the T. brucei EC50 value for at least eight hours. […]

[8] = Human microsome stability; assay type: in vitro ADME; settings: microsomes, Figure 3, read-out: Human microsome t½
[9] = microsomes
[10] = Brain permeability studies in mice (brain to plasma ratio); assay type: in vivo; settings: mouse, 5 mg/kg
[11] = parameters: method as in PMID 28835807; settings: data are for close analog of Scaffold 9 parent (parent had poor ionization in MS); 60 min following IP dose; cited from earlier work
[12] = test system: T. b. brucei (strain TREU667); parameters: method as in PMID 27992217; settings: cited from earlier work
[13] = Trypanosoma brucei, Figures 4 and 5, read-out: T. brucei EC50
[14] = Trypanosoma brucei, Figure 3, Scaffold 1 optimization, read-out: T. brucei EC50
[15] = brain and plasma, intraperitoneal, Figure 3, read-out: Brain:Plasma
[16] = CRL-8155 cells (lymphoblasts), Figure 3, Scaffold 1 optimization, read-out: CC50
[17] = Trypanosoma brucei, selected hit compounds, Table 1, read-out: T. brucei EC50
[18] = lymphocytic cell line CRL-8155, read-out: Mammalian CC50
[19] = in vivo, brain to plasma ratio at 60 min following IP dose
[20] = in vivo, Figures 4 and 5, read-out: Brain:Plasma ratio
[21] = CRL-8155 cells (lymphoblasts), lymphocytic cell line CRL-8155, read-out: Mammalian CC50
[22] = brain and plasma, brain to plasma ratio at 60 min following IP dose

`COc1cc(N2C(=O)CN(Cc3ccc(F)cc3Cl)C2=S)ccc1N(C)C` [BA-738] gave an EC50 [1, 13] of 1.9 nM, a CC50 at 48 h ([2]; CRL-8155 cells (lymphoblasts), Figure 5, read-out: Mammalian cell CC50) greater than 50000 nM and a Kp at 1 h ([3]; brain and plasma, intraperitoneal, Figures 4 and 5, read-out: Brain:Plasma ratio) of 1.68. For the same compound, the “cures in the chronic infection model” value [4] was 20 % of mice, the “outcome in acute T. brucei infection in mice” value [5] was “cured mice” and the “Mouse liver microsome t½” value ([6]; Figures 4 and 5) was 660 s.

In the case of `O=C(Nc1ccc(F)c(-c2nc3cc(-c4ccccc4)cnc3[nH]2)c1)N1CCCC1` [HB-175], the EC50 [1, 14] is reported as 4 nM, the Kp at 1 h [3, 15] is reported as 0.04 and the AUC [7] is reported as 1236 µmol·min.

In the case of `Cc1nc(C)c(C(=O)Nc2ccc(F)c(-c3nc4ncc(-c5ccccc5Cl)cn4n3)c2)o1` [PN-302], the CC50 at 48 h [2, 16] is reported as greater than 50000 nM, the Kp at 1 h [3, 15] is reported as 0.23 and the half-life [8] is reported as greater than 1.5 h. The AUC [7] was 55901 µmol·min and the half-life [6] was greater than 5400 s.

Work on `N=C(N)c1ccc(OCCCCCOc2ccc(C(=N)N)cc2)cc1` [Pentamidine isothionate, reference compound] yielded an EC50 ([1]; positive control included in each assay, read-out: EC50 of positive control) of 1.2 ± 0.3 nM.

Compound `O=C(Nc1ccc(Cl)c(-c2nc3ncccc3o2)c1)c1ccco1` [Scaffold 1] has an EC50 [1, 14] of 220 nM, an EC50 [1, 17] of 218 nM and a CC50 at 48 h ([2]; Figure 3, Scaffold 1 optimization, read-out: CC50) of 50000 nM. The CC50 at 48 h [2, 18] was greater than 50000 nM, the Kp at 60 min [3, 19] was 0.547 and the “Mouse microsome t½” value [9] was 48 s.

With `O=C(NCCc1nc(-c2ccccc2)cs1)c1ccccc1` [Scaffold 2] the CC50 at 48 h [2, 18] was greater than 50000 nM, the Kp at 1 h [3, 20] was 0.3 and the Kp at 60 min [3, 19] was 0.3.

`O=c1c2ccccc2nc(SCc2cccnc2)n1Cc1ccco1` [Scaffold 3] gave an EC50 [1, 17] of 874 nM, a CC50 at 48 h [2, 21] of 38000 nM and a Kp at 60 min [3, 22] of 2.86.

Work on `Cc1nn2c(NCCCO)c3c(nc2c1-c1cccs1)CCC3` [Scaffold 6] yielded an EC50 [1, 17] of 307 nM, a CC50 at 48 h [2, 21] greater than 100000 nM and a Kp at 60 min [3, 22] of 0.727.

Work on `COc1ccc(-n2nc(C(=O)NCC(=O)N3CCCC(C)C3)c3ccccc3c2=O)cc1Cl` (stereo not shown) [Scaffold 7] yielded an EC50 [1, 17] of 657 nM, a CC50 at 48 h [2, 21] greater than 50000 nM and a Kp at 60 min [3, 22] of 0.587.

For `Fc1ccccc1C1C=C(c2cccnc2)Nc2nnnn21` (stereo not shown) [Scaffold 8], the EC50 [1, 17] was 214 nM, the CC50 at 48 h [2] was 14300 nM and the Kp at 15 min ([10]; in vivo, brain to plasma ratio at 15 min following IP dose (Scaffold 8), read-out: B/P Ratio (Mouse)) was 7.11.

For `COc1ccc(N2C(=O)CN(Cc3ccccc3)C2=S)cc1Cl` [Scaffold 9], the EC50 [1, 17] is listed as 346 nM, the CC50 at 48 h [2, 21] is listed as greater than 50000 nM and the “B/P Ratio (Mouse)” value [11] is listed as 0.743 ***.

Compound `CCn1cc(CN2CCCC(C(=O)Nc3ccc(-c4nc5ccccc5[nH]4)cc3)C2)cn1` (stereo not shown) [Scaffold 10] has an EC50 [1, 17] of 2440 nM and a Kp at 60 min [3, 22] of 0.224.

With `O=c1nc(/C=C/c2cn(Cc3ccccc3F)c3ccccc23)cc(C(F)(F)F)[nH]1` [Scaffold 11] the EC50 [1, 17] was 3090 nM, the Kp at 60 min [3, 22] was 0.09 and the Kp at 60 min ([10]; brain and plasma, intraperitoneal, mice sacrificed at 60 min, n = 3, read-out: brain levels as percent of plasma levels) was 0.09.

With `COc1ccc(CNC(=O)CN(c2cccc(C)c2C)S(=O)(=O)c2ccccc2)cc1` [Scaffold 12] the EC50 [1, 17] was 1700 nM, the CC50 at 48 h [2, 21] was greater than 100000 nM and the Kp at 60 min [3, 22] was 0.267.

`Cc1cc(C)c(NC(=O)c2cc(S(=O)(=O)N3CCOCC3)cn2C)c(C)c1` [Scaffold 13] showed an EC50 [1, 17] of 1000 nM, a CC50 at 48 h [2, 21] greater than 100000 nM and a Kp at 60 min [3, 22] of 0.02.

In the case of `COCCN1C(=O)c2ccccc2C(C(=O)Nc2ccc(Oc3ccccc3)cc2)C1c1ccc(F)cc1` (stereo not shown) [Scaffold 14], the EC50 [1, 17] is reported as 708 nM, the CC50 at 48 h [2, 21] is reported as greater than 100000 nM and the Kp at 60 min [3, 22] is reported as 0.01.

With `COc1cccc(C2N(c3ccccc3)N=C(C(C)=O)N2c2ccc(C)c(C)c2)c1OCc1ccccc1` (stereo not shown) [Scaffold 15] the EC50 [1, 17] was 1500 nM, the CC50 at 48 h [2, 21] was 33000 nM and the Kp at 60 min [3, 22] was 0.

For `O=C(CSc1nc2scc(-c3ccccc3)c2c(=O)n1-c1ccccc1)Nc1ccccc1F` [Scaffold 16], the EC50 [1, 17] was 650 nM, the CC50 at 48 h [2, 21] was greater than 100000 nM and the “plasma and brain levels” value ([3]; 60-min time point) was “nearly undetectable plasma and brain levels”. The “B/P Ratio (Mouse)” value ([3]; brain to plasma ratio at 60 min following IP dose) was “No plasma exposure”.

With `COc1ccc(-c2c(C#N)c(SCc3ccccc3)nc(C)c2C(=O)Nc2ccccc2)cc1` [Scaffold 17] the EC50 [1, 17] was 3500 nM, the CC50 at 48 h [2, 21] was greater than 100000 nM and the Kp at 60 min [3, 22] was 0.

In the case of `O=C(Nc1ccc2sc(-c3ccc(F)c(F)c3)nc2c1)N1CC[C@H](F)C1` [Scaffold 45DAP076], the EC50 [1, 13] is listed as 35 nM, the Kp at 1 h [3, 20] is listed as 4 and the “activity in the chronic T. brucei infection model” value [12] is listed as “curative activity”. For the same compound, the half-life [6] was greater than 3600 s.

Work on `O=C(Nc1ccc(F)c(-c2nc3ncccc3o2)c1)c1ccco1` [Site I: F] yielded an EC50 [1, 14] of 80 nM, a CC50 at 48 h [2, 16] of 99700 nM and a half-life [6] of 42 s.

For `O=C(Nc1ccc(Cl)c(-c2nc3ncccc3o2)c1)N1CCCC1` [Site II: pyrrolidine], the EC50 [1, 14] was 80 nM, the CC50 at 48 h [2, 16] was 73000 nM and the half-life [6] was 48 s.

`O=C(Nc1ccc(Cl)c(-c2nc3cc(Br)cnc3[nH]2)c1)c1ccco1` [Site III: as shown] gave an EC50 [1, 14] of 50 nM, a CC50 at 48 h [2, 16] of 200000 nM and a half-life [6] of 48 s.

For `O=C(c1ccco1)N(C(=O)c1ccco1)c1ccc(Cl)c(-c2nc3ncccc3o2)c1` [Site V: as shown], the EC50 [1, 14] was 100 nM, the CC50 at 48 h [2, 16] was 86000 nM and the half-life [6] was 42 s.
